Measurements taken from patent publication US8022055B2, “Betulinic acid derivatives” (Dabur Pharma Limited, priority 2005, dated 2011).
In brackets after ≈: the same amount, converted by molar mass. Like-named read-outs stand apart in the source and are kept apart here.

Assays:
[1] = Pharmacokinetic study after intravenous injection; conditions: rat
Procedure: (§1) Blood samples were taken at various times after administration and plasma was prepared and frozen at −20° C. until analysis. The plasma sample were analyzed by a suitable HPLC method using a C-18 column. The pH of water is adjusted to 3.0 with phosphoric acid. Start the gradient with 70% acetonitrile for 5 minutes and increase the concentration up to 100% within 25 minutes followed by hold at 100% for 10 minutes. It is thus possible to construct the curve showing the plasma concentration as a function of time and to determine different pharmacokinetic parameter of compound studied.

[2] = system: SW620; assay: three day MTT cytotoxicity assay, SW620; type: cell-based, human; conditions: for IC50: Homo sapiens, SW-620, SW620, 72 hours, read-out: IC50 for cell lines SW620
Procedure: (§2) Briefly, a three day MTT cytotoxicity assay was performed, which is based on the principle of uptake of MTT (3-(4,5-dimethylthiazol-2-yl)-2,5-diphenyl tetrazolium bromide), a tetrazolium salt, by the metabolically active cells where it is metabolized by active mitochondria into a blue colored formazan product that is read spectrophotometrically. MIT was dissolved in phosphate buffered saline with a pH of 7.4 to obtain an MIT concentration of 5 mg/ml; the resulting mixture was filtered through a 0.22-micron filter to sterilize and remove a small amount of insoluble residue. For each type of tumor cell, 10,000 to 15,000 cells were seeded in a 96-well culture plate and incubated with the individual betulinic acid derivatives in a CO2 incubator for a total of 72 hours. Control cells not treated with the betulinic acid derivatives were similarly incubated. The assay was terminated by adding 100 μg (20 μl) of MIT to each well then incubating for additional one hour, and finally adding 50 μl of 10% SDS-0.01N HCl to each well to lyse the cells and dissolve formazan. After incubating for one hour, the plate was read spectrophotometrically at 540 nm and the percentage of cytotoxicity calculated using the following formula: Cytotoxicity percentage=100×[1−(X/R1)], where X=(absorbance of treated sample at 540 nm)−(absorbance of blank at 540 nm) R1=absorbance of control sample at 540 nm. The IC50 Values of the cytotoxicity defined as the concentration at which 50% of the cells are killed in vitro was calculated for each cell line treated with each of the betulinic acid derivatives.

[3] = system: DU145; assay: three day MTT cytotoxicity assay, DU145; type: cell-based, human; conditions: for IC50: Homo sapiens, DU-145, DU145, 72 hours, read-out: IC50 for cell lines DU145
Procedure: (§3) A number of compounds listed in Table-3 were tested for cytotoxicity against prostate, lung, laryngeal, pancreas, breast, colon and ovarian cancer, leukemia and lymphoma, human tumor cell lines. Briefly, a three day MTT cytotoxicity assay was performed, which is based on the principle of uptake of MTT (3-(4,5-dimethylthiazol-2-yl)-2,5-diphenyl tetrazolium bromide), a tetrazolium salt, by the metabolically active cells where it is metabolized by active mitochondria into a blue colored formazan product that is read spectrophotometrically. MIT was dissolved in phosphate buffered saline with a pH of 7.4 to obtain an MIT concentration of 5 mg/ml; the resulting mixture was filtered through a 0.22-micron filter to sterilize and remove a small amount of insoluble residue. For each type of tumor cell, 10,000 to 15,000 cells were seeded in a 96-well culture plate and incubated with the individual betulinic acid derivatives in a CO2 incubator for a total of 72 hours. Control cells not treated with the betulinic acid derivatives were similarly incubated. The assay was terminated by adding 100 μg (20 μl) of MIT to each well then incubating for additional one hour, and finally adding 50 μl of 10% SDS-0.01N HCl to each well to lyse the cells and dissolve formazan. After incubating for one hour, the plate was read spectrophotometrically at 540 nm and the percentage of cytotoxicity calculated using the following formula: Cytotoxicity percentage=100×[1−(X/R1)], where X=(absorbance of treated sample at 540 nm)−(absorbance of blank at 540 nm) R1=absorbance of control sample at 540 nm. The IC50 Values of the cytotoxicity defined as the concentration at which 50% of the cells are killed in vitro was calculated for each cell line treated with each of the betulinic acid derivatives.

[4] = system: normal cells; conditions: literature study; cited from earlier work
[5] = system: Miapaca; assay: three day MTT cytotoxicity assay, Miapaca; type: cell-based, human; conditions: for IC50: Homo sapiens, MIA PaCa-2, read-out: IC50 for cell lines Miapaca
[6] = system: HBL100; assay: three day MTT cytotoxicity assay, HBL100; type: cell-based, human; conditions: for IC50: Homo sapiens, HBL-100, read-out: IC50 for cell lines HBL100
Procedure: as §3

[7] = system: PA1; assay: three day MTT cytotoxicity assay, PA1; type: cell-based, human; conditions: for IC50: Homo sapiens, PA-1, PA1, 72 hours, read-out: IC50 for cell lines PA1
Procedure: as §2

[8] = system: A549; assay: three day MTT cytotoxicity assay, A549; type: cell-based, human; conditions: for IC50: Homo sapiens, read-out: IC50 for cell lines A549
Procedure: as §3

[9] = system: NIH 3T3 cells; assay: NIH3T3 cytotoxicity test (72 h MTT assay); type: cell-based; conditions: NIH3T3, 72 hours
Outline: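 Mouse NIH 3T3 fibroblasts exposed to a concentration range of compound for 72 hours; viable cells measured by MTT and growth inhibition calculated against untreated cultures. IC50 expressed in μg/ml; safety index is the NIH 3T3 IC50 divided by tumour-cell IC50.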

[10] = system: K562; assay: three day MTT cytotoxicity assay, K562; type: cell-based, human
Procedure: as §3

[11] = system: various cancer cell lines; assay: in vitro cytotoxicity / anticancer activity, overall statement
[12] = system: various cancer cell lines
[13] = rat, in vivo, iv, 10 mg/kg
Procedure: as §1

[14] = in vivo; conditions: male, Wistar, rat, iv, 10 mg/kg
Procedure: as §1

[15] = system: tumor; conditions: murine xenograft models; cited from earlier work
[16] = male, Wistar, plasma, iv, 10 mg/kg

Which results are given for C=C(C)[C@@H]1CC[C@]2(C(=O)O)CC[C@]3(C)[C@H](CC[C@@H]4[C@@]5(C)CC[C@H](O)C(C)(C)[C@@H]5CC[C@]43C)[C@@H]12 [Betulinic Acid (II), 33-hydroxy-lup-20(29)-en-28-oic acid, reference compound]?
AUC [1, 16]: 13.9 µg·h/mL; AUC(0-t) [1, 16]: 10.6 µg·h/mL; C0 [1, 16]: 36 µg/mL; Vd [1, 16]: 0.0416 L; half-life [1, 16]: 0.265 h; Kel ([1]; 10 mg/kg intravenous, plasma): 2.60 h⁻¹; IC50 [2]: 13.3 mg/L (≈ 29 µM); IC50 [3]: > 20 mg/L; toxicity against normal cells [4]: minimal toxicity against normal cells; IC50 ([5]; Miapaca, 72 hours, MTT): > 20 mg/L; IC50 ([6]; HBL100, 72 hours, MTT): 5.02 mg/L (≈ 11 µM); IC50 [7]: 11.5 mg/L (≈ 25.2 µM); IC50 ([8]; A549, 72 hours, MTT): 3.01 mg/L (≈ 6.59 µM)

Which “IC50 for cell lines NIH3T3” value [9] does the source give for C=C(C)[C@@H]1CC[C@]2(C(=O)O)CC[C@]3(C)C(CCC4[C@@]5(C)Cc6c([nH]c7ccc(Cl)cc67)C(C)(C)C5CC[C@]43C)C12 (stereo partly shown) [Compound 5, 5′-Chloro-2,3-didehydroindolo[2′,′:2,3]betulinic acid] here?
Its value is 4.6 ± 0.14 mg/L.

What about the “elimination (Kel) as compared to betulinic acid” value ([1]; 10 mg/kg intravenous) of the same compound?
The value was “slower elimination”.

And the “pharmacokinetic properties (in words)” value ([1]; 10 mg/kg intravenous)?
The value was “significantly superior pharmacokinetic properties over betulinic acid”.

What about the “plasma concentrations as compared to betulinic acid (II)” value ([1]; 10 mg/kg intravenous) of the same compound?
The value was “quite high and long lasting”.

And the “systemic exposure (AUC0-∞) as compared to betulinic acid” value ([1]; 10 mg/kg intravenous)?
Its value is “better systemic exposure”.

And the “AUC(0-e)” value ([1]; 10 mg/kg intravenous, plasma)?
Its value is 78.4 µg·h/mL.

And the C0 ([1]; 10 mg/kg intravenous, plasma)?
Its C0 is 132.2 µg/mL.

What about the T1/2 ([1]; 10 mg/kg intravenous, plasma) of the same compound?
Its T1/2 is 6.7 h.

What about the Vd ([1]; 10 mg/kg intravenous, plasma) of the same compound?
Its Vd is 0.00023 L.

And the “IC50 for cell lines SW620” value ([2]; SW620, 72 hours)?
Its value is 2.7 mg/L.

What about the “IC50 for cell lines DU145” value ([3]; DU145, 72 hours) of the same compound?
Its value is 4.9 mg/L.

And the “IC50 for cell lines Miapaca” value ([5]; Miapaca, 72 hours, MTT)?
Its value is 2.44 ± 0.26 mg/L.

What about the “Specific Index (SI) for cell lines Miapaca” value ([5]; ratio of IC50 of NIH 3T3 cells to Miapaca) of the same compound?
The value was 1.885.

And the “IC50 for cell lines HBL100” value ([6]; HBL100, 72 hours, MTT)?
The value was 11.75 ± 1.65 mg/L.

And the “Specific Index (SI) for cell lines HBL100” value ([6]; ratio of IC50 of NIH 3T3 cells to HBL100)?
Its value is 0.391.

And the “IC50 for cell lines K562” value ([10]; K562, 72 hours, MTT)?
The value was 9.61 ± 0.78 mg/L.

What about the “Specific Index (SI) for cell lines K562” value ([10]; ratio of IC50 of NIH 3T3 cells to K562) of the same compound?
The value was 0.478.

What about the “IC50 for cell lines PA1” value ([7]; PA1, 72 hours) of the same compound?
Its value is 2.5 mg/L.

And the “IC50 for cell lines A549” value ([8]; A549, 72 hours, MTT)?
Its value is 7.14 ± 0.5 mg/L.

And the “Specific Index (SI) for cell lines A549” value ([8]; ratio of IC50 of NIH 3T3 cells to A549)?
The value was 0.644.

And the “in vitro cytotoxicity / anticancer activity (in words)” value [11]?
Its value is “significantly improved anticancer activity over betulinic acid”.

For CC(C)[C@@H]1CC[C@]2(C(=O)O)CC[C@]3(C)C(CCC4[C@@]5(C)CC/C(=N/Oc6ccc([N+](=O)[O-])cc6)C(C)(C)C5CC[C@]43C)C12 (stereo partly shown) [MJ1098-RS (III)], which IC50 [2] is on record?
Its IC50 is 3.4 mg/L (≈ 5.74 µM).

What about the IC50 [3] of the same compound?
The IC50 was 0.82 mg/L (≈ 1.38 µM).

And the IC50 ([5]; Miapaca, 72 hours, MTT)?
Its IC50 is 3.17 mg/L (≈ 5.35 µM).

What about the “in vitro cytotoxicity / anticancer activity (in words)” value [12] of the same compound?
Its value is “good in vitro cytotoxicity”.

What about the “elimination (Kel) as compared to betulinic acid” value [13] of the same compound?
The value was “slower elimination”.

And the “plasma concentrations as compared to betulinic acid (II)” value [13]?
The value was “quite high and long lasting”.

And the “systemic exposure (AUC0-∞) as compared to betulinic acid” value [13]?
The value was “better systemic exposure”.

What about the IC50 ([6]; HBL100, 72 hours, MTT) of the same compound?
Its IC50 is 2.82 mg/L (≈ 4.76 µM).

What about the AUC [14] of the same compound?
Its AUC is 43.6 µg·h/mL.

What about the C0 [14] of the same compound?
Its C0 is 101 µg/mL.

What about the Vd [14] of the same compound?
Its Vd is 0.0006 L.

What about the half-life [14] of the same compound?
The half-life was 9.9 h.

And the IC50 [7]?
Its IC50 is 3.63 mg/L (≈ 6.12 µM).

And the IC50 ([8]; A549, 72 hours, MTT)?
Its IC50 is 1.18 mg/L (≈ 1.98 µM).

What about the tumor reduction [15] of the same compound?
The tumor reduction was “shows tumor reduction”.
